Results published in PubChem BioAssay (NCI).
Several values for one entry are separate records, joined by “and”; a condition that tells them apart may be missing. Equal values may be shown once.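 In this assay, cells in 96-well plates receive the compound at five concentrations for 48 hours. Endpoints are linearly interpolated between the surrounding concentrations. Abbreviation: GI50, concentration required for 50% inhibition of growth. Definition used: TGI = concentration required for complete inhibition of growth.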

Tests used:
Assay in all cases: NCI anticancer screen, dose series, 48 h
[1] = system: A549 NSCLC
[2] = system: IGROV1 ovarian
[3] = system: MALME-3M melanoma
[4] = system: OVCAR-3 ovarian
[5] = system: OVCAR-5 ovarian
[6] = system: SF-539 CNS
[7] = system: SK-MEL-28 melanoma
[8] = system: UACC-62 melanoma
[9] = system: MDA-MB-231 breast
[10] = system: MDA-MB-435

In the case of `CCOC(=O)C(=O)C(C#N)c1ccc(Cl)cc1` (stereo not drawn), the TGI [1] is reported as over 100 µM, the TGI [2] is reported as over 100 µM and the TGI [3] is reported as over 100 µM. For the same molecule, the TGI [4] was over 100 µM, the TGI [5] was over 100 µM and the TGI [6] was over 100 µM. For the same molecule, the TGI [7] was over 100 µM and the TGI [8] was over 100 µM.
`O=C(Cc1nc2ccccc2o1)C(=O)Nc1ccc(Cl)cc1Cl` was tested, and the TGI [1] was over 100 µM, the TGI [2] was over 100 µM and the TGI [3] was over 100 µM. The TGI [4] was over 100 µM, the TGI [5] was over 100 µM and the TGI [6] was over 100 µM. For the same molecule, the TGI [7] was over 100 µM and the TGI [8] was over 100 µM.
`COC(=O)C1=CC(=O)[C@@H]2CCCC[C@H]12` was tested, and the TGI [1] was over 100 µM, the TGI [3] was over 100 µM and the TGI [4] was over 100 µM. For the same molecule, the TGI [6] was over 100 µM, the TGI [7] was over 100 µM and the TGI [8] was over 100 µM.
`Cc1c(C(=O)c2ccccc2)[n+](=O)c2cc(F)c(F)cc2n1[O-]` gave a GI50 [1] of 7.26 µM, a TGI [1] of 30.9 µM and a GI50 [2] of 1.32 µM. For the same molecule, the TGI [2] was 5.33 µM, the GI50 [3] was 2.7 µM and the TGI [3] was 7.76 µM. For the same molecule, the GI50 [9] was 1.46 µM, the TGI [9] was 2.83 µM and the GI50 [10] was 2.2 µM. For the same molecule, the TGI [10] was 5.43 µM, the GI50 [4] was 1.53 µM and the TGI [4] was 3.04 µM. For the same molecule, the GI50 [5] was 18.7 µM, the TGI [5] was 33.8 µM and the GI50 [6] was 3.94 µM. It also gave a TGI [6] of 12.9 µM, a GI50 [8] of 1.51 µM and a TGI [8] of 2.83 µM.
`N#CCCN(c1ccc(C=O)cc1)S(=O)(=O)c1ccccc1` gave a TGI [1] of over 100 µM, a TGI [2] of over 100 µM and a TGI [3] of over 100 µM. For the same molecule, the TGI [4] was over 100 µM, the TGI [5] was over 100 µM and the TGI [6] was over 100 µM. The TGI [7] was over 100 µM and the TGI [8] was over 100 µM.
Molecule `N#Cc1cccc(C2C(=O)c3ccc(C(=O)c4ccc5c(c4)C(=O)N(c4ccc(Oc6ccc(N7C(=O)c8ccc(C(=O)c9ccc%10c(c9)C(=O)N(c9cccc(C#N)c9)C%10=O)cc8C7=O)cc6)cc4)C5=O)cc3C2=O)c1` (stereo not drawn) has a TGI [1] of over 100 µM, a TGI [2] of over 100 µM and a TGI [3] of over 100 µM. For the same molecule, the TGI [4] was over 100 µM, the TGI [5] was over 100 µM and the TGI [6] was over 100 µM. For the same molecule, the TGI [7] was over 100 µM and the TGI [8] was over 100 µM.
`CN(C)c1ccc(/C=c2/c3cc(O)ccc3n3c2cc(-c2ccccc2)[n+]3C)cc1` showed a TGI [1] of over 100 µM, a TGI [2] of 1.47 µM and a TGI [9] of 2.82 µM. It also gave a TGI [10] of 2.29 µM, a GI50 [5] of 6.04 µM and a TGI [5] of over 100 µM. It also gave a TGI [7] of 2.36 µM and a GI50 [8] of over 100 µM.
Work on `O=C1c2ccc3c4c(ccc(c24)C(=O)N1CCNCc1ccccc1)C(=O)N(CCNCc1ccccc1)C3=O` yielded a GI50 [1] of 1.87 µM, a TGI [1] of 8.77 µM and a GI50 [2] of 1.72 µM. The TGI [2] was 4.27 µM, the GI50 [9] was 2.31 µM and the TGI [9] was 6.61 µM. For the same molecule, the GI50 [4] was 1.91 µM, the TGI [4] was 4.16 µM and the GI50 [5] was 2.02 µM. The TGI [5] was 4.61 µM, the GI50 [6] was 1.88 µM and the TGI [6] was 3.64 µM. The GI50 [7] was 2.59 µM, the TGI [7] was 7.13 µM and the GI50 [8] was 1.74 µM. For the same molecule, the TGI [8] was 3.35 µM.
`Clc1ccccc1C1SCc2nc3ccccc3n21` (stereo not drawn) was tested, and the TGI [1] was over 100 µM, the TGI [2] was over 100 µM and the TGI [3] was 53.4 µM. It also gave a TGI [4] of 29.5 µM, a TGI [5] of 79.4 µM and a TGI [6] of over 100 µM. The TGI [7] was 76.4 µM.
In the case of `CC#CC#C/C(=C/C=CC(=O)OC)SC`, the TGI [1] is reported as over 100 µM, the TGI [2] is reported as over 100 µM and the TGI [3] is reported as over 100 µM. The TGI [9] was over 100 µM, the TGI [10] was over 100 µM and the TGI [5] was over 100 µM. For the same molecule, the TGI [6] was over 100 µM, the TGI [7] was over 100 µM and the TGI [8] was over 100 µM.
`CC[As](CC)SCC1OC(OC(C)=O)C(OC(C)=O)C(OC(C)=O)C1OC(C)=O` (stereo not drawn) was tested, and the TGI [1] was 39.6 µM, the TGI [2] was 33.8 µM and the TGI [3] was 10.3 µM. The TGI [4] was 27.6 µM, the TGI [5] was 32.4 µM and the TGI [6] was 27.4 µM. For the same molecule, the TGI [7] was 15.7 µM and the TGI [8] was 27.2 µM.
In the case of `COC1C(=O)CCC2(CO2)C1(O)C1(C)OC1CC=C(C)C` (stereo not drawn), the TGI [1] is reported as over 100 µM, the TGI [2] is reported as over 100 µM and the TGI [9] is reported as over 100 µM. The TGI [10] was over 100 µM, the TGI [4] was over 100 µM and the TGI [5] was over 100 µM. The TGI [7] was over 100 µM and the TGI [8] was 80.8 µM.
`CC1C(O)=C(O)c2ccccc2N1O` (stereo not drawn) was tested, and the TGI [1] was over 100 µM, the TGI [2] was over 100 µM and the TGI [3] was over 100 µM. The TGI [4] was over 100 µM, the TGI [5] was over 100 µM and the TGI [6] was over 100 µM. The TGI [7] was over 100 µM and the TGI [8] was over 100 µM.
`Cc1ccccc1-n1c(CCl)nc2ccc(Br)cc2c1=O` was tested, and the TGI [1] was 44.9 µM, the TGI [2] was 33.1 µM and the TGI [3] was 32.9 µM. It also gave a TGI [4] of 27.5 µM, a TGI [5] of 56.3 µM and a TGI [6] of 21.8 µM. For the same molecule, the TGI [7] was 32.5 µM and the TGI [8] was 17.9 µM.
With `O=C(O)CCC1c2[nH]c3ccccc3c2CCN1Cc1ccccc1` (stereo not drawn) the TGI [1] was over 100 µM, the TGI [2] was over 100 µM and the TGI [3] was over 100 µM. For the same molecule, the TGI [4] was over 100 µM, the TGI [5] was over 100 µM and the TGI [6] was over 100 µM. The TGI [7] was over 100 µM and the TGI [8] was over 100 µM.
For `O=C(CC(=O)c1cccc([N+](=O)[O-])c1)C(=O)Nc1ccccc1`, the TGI [1] was over 100 µM, the TGI [2] was over 100 µM and the TGI [3] was over 100 µM. It also gave a TGI [4] of over 100 µM, a TGI [5] of over 100 µM and a TGI [6] of over 100 µM. It also gave a TGI [7] of over 100 µM and a TGI [8] of over 100 µM.
In the case of `COc1cc2c(cc1-c1coc3cc(O)ccc3c1=O)OCO2`, the TGI [1] is reported as 77.4 µM, the TGI [2] is reported as 53.7 µM and the TGI [10] is reported as over 100 µM. For the same molecule, the TGI [4] was over 100 µM, the TGI [5] was over 100 µM and the TGI [6] was 48.6 µM. For the same molecule, the TGI [7] was over 100 µM and the TGI [8] was 63.9 µM.
`CN1CCN(CCC=C2c3ccccc3Sc3ccc(S(=O)(=O)N(C)C)cc32)CC1` was tested, and the GI50 [1] was 5.69 µM and 9.71 µM, the TGI [1] was > 100 µM and 31.5 µM and the GI50 [2] was 5.13 µM and 8.26 µM. The TGI [2] was 23.3 µM and 25.7 µM, the GI50 [3] was 1.73 µM and 2.54 µM and the TGI [3] was 3.5 µM and 9.72 µM. The GI50 [9] was 1.82 µM and 4.4 µM, the TGI [9] was 4.43 µM and 16.8 µM and the GI50 [10] was 1.89 µM and 2.08 µM. For the same molecule, the TGI [10] was 4.28 µM and 5.82 µM, the GI50 [4] was 3.84 µM and 6.44 µM and the TGI [4] was 16.3 µM and 22.7 µM. For the same molecule, the GI50 [5] was 10.9 µM and 14.8 µM, the TGI [5] was 38.8 µM and 30 µM and the GI50 [7] was 1.8 µM and 1.77 µM. The TGI [7] was 3.22 µM and 3.35 µM, the GI50 [8] was 1.66 µM and 1.76 µM and the TGI [8] was 3.21 µM and 3.48 µM.
For `Cc1cc(Cl)cc2c1NC(=O)C2(O)C(C(=O)c1ccccc1)c1ccccc1` (stereo not drawn), the GI50 [1] was 97.1 µM and 22.6 µM, the TGI [1] was > 100 µM and 51.5 µM and the TGI [2] was 83 µM. For the same molecule, the GI50 [3] was 91.5 µM and 22.7 µM, the TGI [3] was > 100 µM and 49.2 µM and the GI50 [4] was 53 µM and 22.4 µM. For the same molecule, the TGI [4] was > 100 µM and 54.1 µM, the TGI [5] was over 100 µM and the TGI [6] was 39.7 µM. For the same molecule, the GI50 [7] was 96.6 µM and 24.5 µM, the TGI [7] was > 100 µM and 51 µM and the TGI [8] was 33.3 µM.
`Nc1n[nH]c2ccc([C@@H]3Nc4ccc5cn[nH]c5c4[C@H]4C5CCC(C5)[C@@H]34)cc12` (stereo partly drawn) gave a GI50 [1] of 0.541 µM, a TGI [1] of over 100 µM and a GI50 [2] of 0.579 µM. For the same molecule, the TGI [2] was 62.2 µM, the GI50 [3] was 0.522 µM and the TGI [3] was over 100 µM. It also gave a GI50 [9] of 0.874 µM, a TGI [9] of over 53.4 µM and a GI50 [4] of 0.346 µM. The TGI [4] was 10.9 µM, the GI50 [5] was 1.14 µM and the TGI [5] was 99.3 µM. It also gave a GI50 [6] of 0.299 µM, a TGI [6] of 3.38 µM and a GI50 [7] of 1.05 µM. The TGI [7] was over 100 µM, the GI50 [8] was 0.389 µM and the TGI [8] was 34.3 µM.
In the case of `CC(=O)Nc1cc2c3c(cccc3c1)-c1ccccc1-2`, the GI50 [1] is reported as 3.72 µM, the TGI [1] is reported as over 100 µM and the GI50 [2] is reported as 24.2 µM. The TGI [2] was over 100 µM, the GI50 [9] was 10.6 µM and the TGI [9] was 25.8 µM. The GI50 [10] was 30 µM, the TGI [10] was over 100 µM and the GI50 [4] was 52.2 µM. For the same molecule, the TGI [4] was over 100 µM, the GI50 [5] was 16.7 µM and the TGI [5] was 35.7 µM. It also gave a GI50 [6] of over 100 µM, a TGI [6] of over 100 µM and a GI50 [7] of over 100 µM. The TGI [7] was over 100 µM, the GI50 [8] was 40 µM and the TGI [8] was over 100 µM.
